{"source": "patent US20130196362A1", "about": "“DIARYLAMINE-BASED FLUOROGENIC PROBES FOR DETECTION OF PEROXYNITRITE” (THE UNIVERSITY OF HONG KONG, priority 2012, published 2013)", "key": {"[1]": {"assay": "Fluorescence response of probe to increasing peroxynitrite in phosphate buffer", "procedure": "(§1) FIG. 1A depicts fluorescence spectra showing fluorescence intensities of compound 2 after treatment with different amounts of peroxynitrite. […] The spectra were acquired by dissolving Compound 2 in 0.1 M phosphate buffer at pH 7.4 to form a 1 μM solution, with excitation and emission spectra at 510 nm and 530 nm, respectively. The concentration of highly reactive oxygen species hydroxyl radical (.OH), hypochlorous acid (^−OCl), and peroxynitrite (ONOO^−) is 1 μM. The concentration of ^1O2, O2.^−, NO, ROO. and H2O2 is 10 μM.\n(§2) FIG. 2A depicts fluorescence spectra showing fluorescence intensities of Compound 11 after treatment with different amounts of peroxynitrite. […] The spectra were acquired by dissolving […] in 0.1M phosphate buffer at pH 7.4 to form a 2 μM solution, with excitation and emission at 547 nm and 570 nm, respectively. The concentration of highly reactive oxygen species hydroxyl radical (.OH), hypochlorous acid (^−OCl), and peroxynitrite (ONOO^−) is 2 μM. The concentration of ^1O2, O2.^−, NO, ROO. and H2O2 is 20 μM.\n(§3) FIG. 3A depicts fluorescence spectra showing fluorescence intensities of Compound 22 after treatment with different amounts of peroxynitrite. […] The spectra were acquired by dissolving Compound 22 in 0.1M phosphate buffer at pH 7.4 to form a 5 μM solution, with excitation at 600 nm and emission at 617 nm, respectively. The concentration of highly reactive oxygen species hydroxyl radical (.OH), hypochlorous acid (^−OCl), and peroxynitrite (ONOO^−) is 5 μM. The concentration of ^1O2, O2.^−, NO, ROO. and H2O2 is 50 μM.\nas §3, with “4A” for “3A”, “25” for “22”, “650” for “600”, “665” for “617”\n(§4) FIG. 5A depicts fluorescence spectra showing fluorescence intensities of Compound 30 after treatment with different amounts of peroxynitrite. […] The spectra were acquired by dissolving Compound 30 in 0.1 M phosphate buffer at pH 7.4 and exciting at 515 nm. The concentration of highly reactive oxygen species hypochlorous acid (^−OCl) and peroxynitrite (ONOO^−) is 1 μM. The concentration of hydroxyl radical (.OH) is 1 μM or 10 μM. The concentration of ^1O2, O2.^−, NO, ROO. and H2O2 is 10 μM or 100 μM. (see figure for exact concentrations of certain ROS and RNS)\nSpecifically, Compound 2 is dissolved in 0.1 M phosphate buffer at pH 7.4 to form a 1 μM solution, with excitation and emission spectra at 510 nm and 530 nm, respectively. The 1 μM solution of Compound 2 is treated with peroxynitrite at various concentrations.\nSpecifically, Compound 11 is dissolved in 0.1 M phosphate buffer at pH 7.4 to form a 2 μM solution, with excitation and emission spectra at 547 nm and 570 nm, respectively. The 2 μM solution of Compound 11 is treated with peroxynitrite at various concentrations.\nSpecifically, Compound 22 is dissolved in 0.1 M phosphate buffer at pH 7.4 to form a 5 μM solution, with excitation and emission spectra at 600 nm and 617 nm, respectively. The 5 μM solution of Compound 22 is treated with peroxynitrite at various concentrations. […]"}, "[2]": {"assay": "Reactivity of probe toward different ROS and RNS (selectivity) in phosphate buffer", "conditions": "for increase in fluorescence intensity with peroxynitrite versus other ROS and RNS: OCl-, pH 7.4", "procedure": "as §1, §2, §3\nas §3, with “4A” for “3A”, “25” for “22”, “650” for “600”, “665” for “617”\nas §4\n(§5) The reactivity of Compound 2 is compared toward different reactive oxygen species (ROS) and reactive nitrogen species (RNS). Specifically, the 1 μM solution of compound 2 is treated with various ROS and RNS. The concentration of highly reactive oxygen species (hydroxyl radical (.OH), hypochlorous acid (^−OCl), and peroxynitrite (ONOO^−)) is 1 μM. The concentration of ^1O2, O2.^−, NO, ROO. and H2O2 is 10 μM.\nas §5, with “Compound 11” for “Compound 2”, “compared with” for “compared toward”, “the 2” for “the 1”, “compound 11” for “compound 2”, “is 2” for “is 1”, “is 20” for “is 10”\nThe reactivity of Compound 22 is compared with different reactive oxygen species (ROS) and reactive nitrogen species (RNS). Specifically, the 5 μM solution of compound 22 is treated with various ROS and RNS. The concentration of highly reactive oxygen species (hydroxyl radical (.OH), hypochlorous acid (^−OCl), and peroxynitrite (ONOO^−)) is 5 μM. The concentration of ^1O2, O2.^−, NO, ROO. and H2O2 is 50 μM. […]"}, "[3]": {"system": "C17.2 neural progenitor cells", "assay": "Fluorescent microscopy of C17.2 cells with or without SIN-1", "type": "cell-based, Mouse", "conditions": "for fluorescence in the absence of stimulants: no SIN-1; for fluorescence after treatment with stimulants: with SIN-1", "procedure": "The cells were incubated with Compound 20 or 21 at a concentration of 1 μM, and then treated with (Lower) or without (Upper) SIN-1.\nThe cells were incubated with Compound 32 at a concentration of 5 μM.\n(§6) Human SH-SY5Y neuroblastoma cells (ATCC, USA) were maintained in high glucose Dulbecco's Modified Eagle Medium (DMEM, Hyclone) supplemented with 10% fetal bovine serum (FBS, Gibco), 1% penicillin/streptomycin (PS, Gibco) and 1% L-glutamine (Gibco). Mouse C17.2 neural progenitor cells (ATCC, USA) were maintained in high glucose Dulbecco's Modified Eagle Medium supplemented with 8% fetal bovine serum (Gibco), 4% horse serum (Gibco), 1% penicillin/streptomycin and 1% L-glutamine. Mouse RAW264.7 macrophage cells (ATCC, USA) were maintained in high glucose Dulbecco's Modified Eagle Medium (DMEM, Hyclone) supplemented with 10% fetal bovine serum (Gibco), 1% penicillin/streptomycin (Gibco) and 1% L-glutamine.\n(§7) Generally, cells were grown to confluence prior to experiment. Cells were incubated with Compounds) 6, 7, 8, 14, 20, 21, 24, 27, and 32, respectively for 1 hr, and then washed three times with PBS buffer."}, "[4]": {"system": "SH-SY5Y neuroblastoma cells", "assay": "Fluorescent microscopy of SH-SY5Y cells with or without SIN-1", "type": "cell-based, Human", "conditions": "incubated 1 hr; for fluorescence in the absence of stimulants: washed with PBS, no SIN-1; for fluorescence after treatment with stimulants: with SIN-1", "procedure": "SH-SY5Y cells were co-stained with different compounds with or without SIN-1 for 1 h, and then washed quickly with PBS for 3 times and maintained in non-phenol red medium. Left: no SIN-1 treatment; Right: with SIN-1 treatment.\nSH-SY5Y cells were co-stained with different compounds with or without SIN-1 for 1 h, and then washed quickly with PBS for 3 times and maintained in non-phenol red medium. Left: no SIN-1 treatment; Middle: with 1 mM SIN-1 treatment; Right: with 100 μM SIN-1 treatment.\nSH-SY5Y cells were co-stained with different compounds with or without SIN-1 for 1 h, and then washed quickly with PBS for 3 times and maintained in non-phenol red medium. Left: no SIN-1 treatment; Middle: with 100 μM SIN-1 treatment; Right: with 200 μM SIN-1 treatment.\nas §6, §7"}, "[5]": {"system": "RAW264.7 macrophage cells", "assay": "Fluorescent microscopy of RAW264.7 macrophages stimulated with LPS and IFN-γ", "type": "cell-based, Mouse", "conditions": "500 nM", "procedure": "The macrophage cells were incubated with Compound 27 at a concentration of 500 nM. Upper: Control; Lower: The macrophages were stimulated with LPS and IFN-γ for 14 hr. Left: Nuclear staining with Hoechst; Middle: Compound 27; Right: Merged.\nas §6, §7"}}}
{"smiles": "CN(c1ccc(O)cc1)c1ccc2c(-c3ccc(C(=O)N(CC(=O)O)CC(=O)O)cc3C(=O)O)c3ccc(=O)cc-3oc2c1", "note": "[Compound 2]", "values": [{"measurement": "fluorescence intensity after treatment with peroxynitrite at various concentrations", "setting": "[1]; 1 μM solution in 0.1 M phosphate buffer pH 7.4, excitation 510 nm, emission 530 nm", "result": "increases with increasing concentration of peroxynitrite"}, {"measurement": "increase in fluorescence intensity with peroxynitrite versus other ROS and RNS", "setting": "[2]; 1 μM probe, .OH, ONOO- 1 μM, 1O2, O2.-, NO, ROO., H2O2 10 μM", "result": "much higher increase in fluorescence intensity"}]}
{"smiles": "CC[N+]1=c2cc3c(cc2C(C)CC1(C)C)=C(c1ccc(C)cc1C)c1ccc(N(C)c2ccc(O)cc2)cc1O3", "note": "(centres unmarked) [Compound 21]", "values": [{"measurement": "fluorescence in the absence of stimulants", "setting": "[3]", "result": "very weak fluorescence"}, {"measurement": "fluorescence after treatment with stimulants", "setting": "[3]", "result": "strongly induced"}]}
{"smiles": "COC(=O)CN(CC(=O)OC)C(=O)c1ccc2c(c1)C(=O)OC21c2ccc(OC(C)=O)cc2Oc2cc(N(C)c3ccc(O)cc3)ccc21", "note": "(centres unmarked) [Compound 7]", "values": [{"measurement": "fluorescence in the absence of stimulants", "setting": "[4]", "result": "very weak fluorescence"}, {"measurement": "fluorescence after treatment with stimulants", "setting": "[4]", "result": "strongly induced"}]}
{"smiles": "CC1CC(C)(C)[N+](CCCC(=O)O)=c2cc3c(cc21)=C(c1ccccc1C(=O)O)c1cc(Cl)c(N(C)c2ccc(O)cc2)cc1O3", "note": "(centres unmarked) [Compound 11]", "values": [{"measurement": "fluorescence intensity after treatment with peroxynitrite at various concentrations", "setting": "[1]; 2 μM solution in 0.1 M phosphate buffer pH 7.4, excitation 547 nm, emission 570 nm", "result": "increases with increasing concentration of peroxynitrite"}, {"measurement": "increase in fluorescence intensity with peroxynitrite versus other ROS and RNS", "setting": "[2]; 2 μM probe, .OH, ONOO- 2 μM, 1O2, O2.-, NO, ROO., H2O2 20 μM", "result": "much higher increase in fluorescence intensity"}]}
{"smiles": "CN(c1ccc(O)cc1)c1ccc2c(-c3ccccc3C(=O)N3CCN(C(=O)CCCC[P+](c4ccccc4)(c4ccccc4)c4ccccc4)CC3)c3ccc(=O)cc-3oc2c1", "note": "[Compound 30]", "values": [{"measurement": "fluorescence intensity after treatment with peroxynitrite at various concentrations", "setting": "[1]; 1 μM solution in 0.1 M phosphate buffer pH 7.4, excited at 515 nm", "result": "increases with increasing concentration of peroxynitrite"}, {"measurement": "increase in fluorescence intensity with peroxynitrite versus other ROS and RNS", "setting": "[2]; 1 μM solution of compound 30, ex 515 nm, em 540 nm, ONOO- 1 μM, .OH 1 or 10 μM, others 10 or 100 μM", "result": "sensitively and selectively detects peroxynitrite"}, {"measurement": "emission maximum", "setting": "[2]; 0.1 M phosphate buffer pH 7.4, exciting at 515 nm", "result": 540, "unit": "nm"}]}
{"smiles": "COC(=O)CN(CC(=O)OC)C(=O)c1ccc(C2=C3C=CC(=O)C=C3[Si](C)(C)c3cc(N(C)c4ccc(O)cc4)ccc32)c(C)c1", "note": "[Compound 24]", "values": [{"measurement": "fluorescence in the absence of stimulants", "setting": "[4]", "result": "very weak fluorescence"}, {"measurement": "fluorescence after treatment with stimulants", "setting": "[4]", "result": "strongly induced"}]}
{"smiles": "CC[N+]1=c2cc3c(cc2C(C)CC1(C)C)=C(c1ccc(C(=O)O)cc1C)c1ccc(N(C)c2ccc(O)cc2)cc1[Si]3(C)C", "note": "(centres unmarked) [Compound 25]", "values": [{"measurement": "fluorescence intensity after treatment with peroxynitrite at various concentrations", "setting": "[1]; 5 μM solution in 0.1 M phosphate buffer pH 7.4, excitation 650 nm, emission 665 nm", "result": "increases with increasing concentration of peroxynitrite"}, {"measurement": "increase in fluorescence intensity with peroxynitrite versus other ROS and RNS", "setting": "[2]; 5 μM probe, ex 650/em 665 nm, .OH, ONOO- 5 μM, 1O2, O2.-, NO, ROO., H2O2 50 μM", "result": "much higher increase in fluorescence intensity"}]}
{"smiles": "CC[N+]1=c2cc3c(cc2C(C)CC1(C)C)=C(c1ccc(C(=O)N(CC(=O)OC)CC(=O)OC)cc1C)c1ccc(N(C)c2ccc(O)cc2)cc1[Si]3(C)C", "note": "(centres unmarked) [Compound 27]", "values": [{"measurement": "fluorescence after treatment with stimulants", "setting": "[5]; LPS and IFN-γ for 14 hr", "result": "strongly induced"}, {"measurement": "fluorescence in the absence of stimulants", "setting": "[5]; control", "result": "very weak fluorescence"}]}
{"smiles": "CC[N+]1=c2cc3c(cc2C(C)CC1(C)C)=C(c1ccc(CCl)cc1C)c1ccc(N(C)c2ccc(O)cc2)cc1O3", "note": "(centres unmarked) [Compound 20]", "values": [{"measurement": "fluorescence in the absence of stimulants", "setting": "[3]", "result": "very weak fluorescence"}, {"measurement": "fluorescence after treatment with stimulants", "setting": "[3]", "result": "strongly induced"}]}
{"smiles": "COC(=O)CCN(CCC(=O)OC)C(=O)c1ccc2c(c1)C(=O)OC21c2ccc(OC(C)=O)cc2Oc2cc(N(C)c3ccc(O)cc3)ccc21", "note": "(centres unmarked) [Compound 8]", "values": [{"measurement": "fluorescence in the absence of stimulants", "setting": "[4]", "result": "very weak fluorescence"}, {"measurement": "fluorescence after treatment with stimulants", "setting": "[4]", "result": "strongly induced"}]}
{"smiles": "Cc1cc(C(=O)O)ccc1C1=C2C=CC(=O)C=C2[Si](C)(C)c2cc(N(C)c3ccc(O)cc3)ccc21", "note": "[Compound 22]", "values": [{"measurement": "fluorescence intensity after treatment with peroxynitrite at various concentrations", "setting": "[1]; 5 μM solution in 0.1 M phosphate buffer pH 7.4, excitation 600 nm, emission 617 nm", "result": "increases with increasing concentration of peroxynitrite"}, {"measurement": "increase in fluorescence intensity with peroxynitrite versus other ROS and RNS", "setting": "[2]; 5 μM probe, ex 600/em 617 nm, .OH, ONOO- 5 μM, 1O2, O2.-, NO, ROO., H2O2 50 μM", "result": "much higher increase in fluorescence intensity"}]}
